Tests used:
surinam grass = assay: Test B pre/postemergence surinam grass; type: in vivo, Brachiaria decumbens
Method in brief: (§1)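 Test chemicals in a non-phytotoxic solvent mixture with surfactant were sprayed preemergence onto planted seeds and postemergence onto plants 2 to 18 cm tall (1- to 4-leaf stage). After twelve to sixteen days in a greenhouse, injury was visually rated against untreated controls from 0 (no effect) to 10 (complete control).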

bedstraw = assay: Test B pre/postemergence bedstraw; type: in vivo, Galium aparine
Method in brief: as §1

duck salad = assay: Test B flood test duck salad; type: in vivo, Heteranthera limosa
Method in brief: (§2)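 Each value is a visual injury score relative to controls, with 10 meaning complete control and 0 no effect. Evaluation took place twelve to sixteen days after the 2-leaf-stage plants were treated and kept in the greenhouse.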

rape = assay: Test B pre/postemergence rape; type: in vivo, Brassica napus
Method in brief: as §1

corn = assay: Test B pre/postemergence corn; type: in vivo, Zea mays
Method in brief: as §1

wheat = assay: Test B pre/postemergence wheat; type: in vivo, Triticum aestivum
Method in brief: as §1

smallflower flatsedge = assay: Test B flood test smallflower flatsedge; type: in vivo, Cyperus difformis
Method in brief: as §2

bamyardgrass = assay: Test B flood test barnyardgrass; type: in vivo, Echinochloa crus-galli
Method in brief: as §2

purple nutsedge = assay: Test B pre/postemergence purple nutsedge; type: in vivo, Cyperus rotundus
Method in brief: as §1

blackgrass = assay: Test B pre/postemergence blackgrass; type: in vivo, Alopecurus myosuroides
Method in brief: as §1

rice = assay: Test B flood test rice; type: in vivo, Oryza sativa
Method in brief: as §2

soybean = assay: Test B pre/postemergence soybean; type: in vivo, Glycine max
Method in brief: as §1

velvetleaf = assay: Test B pre/postemergence velvetleaf; type: in vivo, Abutilon theophrasti
Method in brief: as §1

cocklebur = assay: Test B pre/postemergence cocklebur; type: in vivo, Xanthium strumarium
Method in brief: as §1

sugar beet = assay: Test B pre/postemergence sugar beet; type: in vivo, Beta vulgaris
Method in brief: as §1

giant foxtail = assay: Test B pre/postemergence giant foxtail; type: in vivo, Setaria faberii
Method in brief: as §1

crabgrass = assay: Test B pre/postemergence crabgrass; type: in vivo, Digitaria sanguinalis
Method in brief: as §1

[1] = Preemergence, Rate 62 g/ha, scale of 0 to 10 where 0 is no effect and 10 is complete control
[2] = Preemergence, Rate 500 g/ha, scale of 0 to 10 where 0 is no effect and 10 is complete control
[3] = Rate 62 g/ha, Postemergence, scale of 0 to 10 where 0 is no effect and 10 is complete control
[4] = Rate 125 g/ha, Preemergence, scale of 0 to 10 where 0 is no effect and 10 is complete control
[5] = Preemergence, Rate 250 g/ha, scale of 0 to 10 where 0 is no effect and 10 is complete control
[6] = Rate 125 g/ha, Postemergence, scale 0 to 10
[7] = Rate 500 g/ha, Postemergence, scale 0 to 10
[8] = Rate 62 g/ha, headed Pre-emergence (flood test species), scale 0 to 10 (0 no effect, 10 complete control)
[9] = Rate 125 g/ha, Pre-emergence, flood test species, scale 0 to 10 where 0 is no effect and 10 is complete control
[10] = Rate 250 g/ha, Pre-emergence, flood-test species, scale 0 to 10, 0 is no effect, 10 is complete control
[11] = Rate 500 g/ha, Pre-emergence, flood test species, scale 0 to 10 (0 no effect, 10 complete control)

SMILES: COC(=O)Cn1c(=O)on(C(=O)N(c2ccc(F)cc2)C(C)C)c1=O [Compound 215]
- B. signalgrass plant response rating (surinam grass; [1]): 0
- B. signalgrass plant response rating (surinam grass; Preemergence, Rate 250 g/ha, scale 0 to 10, 0 is no effect, 10 is complete control): 2
- Plant response rating, B. signalgrass (surinam grass; [2]): 2
- B. signalgrass plant response rating (surinam grass; [3]): 0
- B. signalgrass plant response rating (surinam grass; Rate 125 g/ha, Postemergence, scale 0 (no effect) to 10 (complete control)): 0
- B. signalgrass plant response rating (surinam grass; [4]): 0
- Plant response rating (0 to 10; 0 is no effect, 10 is complete control), B. signalgrass (surinam grass; Rate 250 g/ha, Postemergence): 3
- B. signalgrass plant response rating (surinam grass; Rate 500 g/ha, Postemergence, scale 0 to 10, 0 no effect, 10 complete control): 3
- Bedstraw plant response rating (bedstraw; [1]): 0
- Bedstraw plant response rating (bedstraw; [5]): 0
- Plant response rating, Bedstraw (bedstraw; [2]): 0
- Bedstraw plant response rating (bedstraw; [3]): 0
- Bedstraw plant response rating (bedstraw; [6]): 0
- Bedstraw plant response rating (bedstraw; [4]): 0
- Plant response rating (0 to 10; 0 is no effect, 10 is complete control), Bedstraw (bedstraw; Rate 250 g/ha, Postemergence): 6
- Bedstraw plant response rating (bedstraw; [7]): 8
- Ducksalad plant response rating (duck salad; [8]): 0
- Ducksalad plant response rating (duck salad; [9]): 0
- Ducksalad plant response rating (duck salad; [10]): 0
- Ducksalad plant response rating (duck salad; [11]): 0
- Rape plant response rating (rape; [1]): 0
- Rape plant response rating (rape; [5]): 0
- Plant response rating, Rape (rape; [2]): 2
- Rape plant response rating (rape; [3]): 0
- Rape plant response rating (rape; [6]): 0
- Rape plant response rating (rape; [4]): 0
- Plant response rating (0 to 10; 0 is no effect, 10 is complete control), Rape (rape; Rate 250 g/ha, Postemergence): 0
- Rape plant response rating (rape; [7]): 0
- Corn plant response rating (corn; [1]): 0
- Corn plant response rating (corn; [5]): 0
- Plant response rating, Corn (corn; [2]): 2
- Corn plant response rating (corn; [3]): 0
- Corn plant response rating (corn; [6]): 0
- Corn plant response rating (corn; [4]): 0
- Plant response rating (0 to 10; 0 is no effect, 10 is complete control), Corn (corn; Rate 250 g/ha, Postemergence): 0
- Corn plant response rating (corn; [7]): 0
- Wheat plant response rating (wheat; [1]): 0
- Wheat plant response rating (wheat; [5]): 0
- Plant response rating, Wheat (wheat; [2]): 0
- Wheat plant response rating (wheat; [3]): 3
- Wheat plant response rating (wheat; [6]): 3
- Wheat plant response rating (wheat; [4]): 0
- Plant response rating (0 to 10; 0 is no effect, 10 is complete control), Wheat (wheat; Rate 250 g/ha, Postemergence): 6
- S. Flatsedge plant response rating (smallflower flatsedge; [8]): 0
- S. Flatsedge plant response rating (smallflower flatsedge; [9]): 0
- S. Flatsedge plant response rating (smallflower flatsedge; [10]): 0
- S. Flatsedge plant response rating (smallflower flatsedge; [11]): 0
- Barnyardgrass plant response rating (bamyardgrass; [8]): 0
- Barnyardgrass plant response rating (bamyardgrass; [9]): 0
- Barnyardgrass plant response rating (bamyardgrass; [10]): 0
- Barnyardgrass plant response rating (bamyardgrass; [11]): 0
- Nutsedge plant response rating (purple nutsedge; [1]): 0
- Nutsedge plant response rating (purple nutsedge; [5]): 0
- Plant response rating, Nutsedge (purple nutsedge; [2]): 0
- Nutsedge plant response rating (purple nutsedge; [3]): 0
- Nutsedge plant response rating (purple nutsedge; [6]): 0
- Nutsedge plant response rating (purple nutsedge; [4]): 0
- Plant response rating (0 to 10; 0 is no effect, 10 is complete control), Nutsedge (purple nutsedge; Rate 250 g/ha, Postemergence): 0
- Nutsedge plant response rating (purple nutsedge; [7]): 0
- Blackgrass plant response rating (blackgrass; [1]): 4
- Plant response rating, Blackgrass (blackgrass; [2]): 6
- Blackgrass plant response rating (blackgrass; [3]): 0
- Blackgrass plant response rating (blackgrass; [6]): 0
- Blackgrass plant response rating (blackgrass; [4]): 6
- Plant response rating (0 to 10; 0 is no effect, 10 is complete control), Blackgrass (blackgrass; Rate 250 g/ha, Postemergence): 4
- Blackgrass plant response rating (blackgrass; [7]): 5
- Rice plant response rating (rice; [8]): 0
- Rice plant response rating (rice; [9]): 0
- Rice plant response rating (rice; [10]): 0
- Rice plant response rating (rice; [11]): 0
- Soybean plant response rating (soybean; [1]): 0
- Soybean plant response rating (soybean; [5]): 0
- Plant response rating, Soybean (soybean; [2]): 0
- Soybean plant response rating (soybean; [3]): 0
- Soybean plant response rating (soybean; [6]): 1
- Soybean plant response rating (soybean; [4]): 0
- Plant response rating (0 to 10; 0 is no effect, 10 is complete control), Soybean (soybean; Rate 250 g/ha, Postemergence): 1
- Soybean plant response rating (soybean; [7]): 1
- Velvetleaf plant response rating (velvetleaf; [1]): 0
- Velvetleaf plant response rating (velvetleaf; [5]): 0
- Plant response rating, Velvetleaf (velvetleaf; [2]): 0
- Velvetleaf plant response rating (velvetleaf; [3]): 0
- Velvetleaf plant response rating (velvetleaf; [6]): 0
- Velvetleaf plant response rating (velvetleaf; [4]): 0
- Plant response rating (0 to 10; 0 is no effect, 10 is complete control), Velvetleaf (velvetleaf; Rate 250 g/ha, Postemergence): 0
- Cocklebur plant response rating (cocklebur; [1]): 0
- Cocklebur plant response rating (cocklebur; [5]): 0
- Plant response rating, Cocklebur (cocklebur; [2]): 0
- Cocklebur plant response rating (cocklebur; [3]): 0
- Cocklebur plant response rating (cocklebur; [6]): 0
- Cocklebur plant response rating (cocklebur; [4]): 0
- Plant response rating (0 to 10; 0 is no effect, 10 is complete control), Cocklebur (cocklebur; Rate 250 g/ha, Postemergence): 0
- Cocklebur plant response rating (cocklebur; [7]): 0
- Sugarbeets plant response rating (sugar beet; [1]): 0
- Sugarbeets plant response rating (sugar beet; [5]): 2
- Plant response rating, Sugarbeets (sugar beet; [2]): 7
- Sugarbeets plant response rating (sugar beet; [3]): 0
- Sugarbeets plant response rating (sugar beet; [6]): 0
- Sugarbeets plant response rating (sugar beet; [4]): 2
- Plant response rating (0 to 10; 0 is no effect, 10 is complete control), Sugarbeets (sugar beet; Rate 250 g/ha, Postemergence): 0
- Sugarbeets plant response rating (sugar beet; [7]): 0
- Giant foxtail plant response rating (giant foxtail; [1]): 3
- Giant foxtail plant response rating (giant foxtail; [5]): 3
- Plant response rating, Giant foxtail (giant foxtail; [2]): 5
- Giant foxtail plant response rating (giant foxtail; [3]): 0
- Giant foxtail plant response rating (giant foxtail; [6]): 0
- Giant foxtail plant response rating (giant foxtail; [4]): 3
- Plant response rating (0 to 10; 0 is no effect, 10 is complete control), Giant foxtail (giant foxtail; Rate 250 g/ha, Postemergence): 3
- Giant foxtail plant response rating (giant foxtail; [7]): 5
- Crabgrass plant response rating (crabgrass; [1]): 3
- Crabgrass plant response rating (crabgrass; [5]): 4
- Plant response rating, Crabgrass (crabgrass; [2]): 4
- Crabgrass plant response rating (crabgrass; [3]): 0
- Crabgrass plant response rating (crabgrass; [6]): 0
- Crabgrass plant response rating (crabgrass; [4]): 4
- Plant response rating (0 to 10; 0 is no effect, 10 is complete control), Crabgrass (crabgrass; Rate 250 g/ha, Postemergence): 2
- Crabgrass plant response rating (crabgrass; [7]): 2

From patent US6737383B1, “Herbicidal oxadiazolidines” (priority 1999, dated 2004)
